Experimental data as given in patent publication US8486991B2, “Enantiomerically pure phosphoindoles as HIV inhibitors” (Idenix Pharmaceuticals, Inc., priority 2006, dated 2013).

Assays:
[1] = biological target: T1, wild-type HIV-1 RT enzyme in BH10 backbone (Human immunodeficiency virus type 1 group M subtype B, UniProt P03366); test: biochemical; details: for IC50: Average IC50 Values ± Standard Deviation, W.T.; for Fold Change, W.T.: Table 2, mutant vs wild-type; for Average Fold Changes ± Standard Deviation, W.T.: Table 4, IC50 mutant / IC50 wild-type
T1 construct: wild-type HIV RT enzyme derived from HIV subtype B (BH-10 strain)
Excerpt: (§1) In Vitro Antiviral Activity Against Additional Mutant HIV RT Enzymes

[2] = biological target: T2, HIV-1 RT E138K mutant enzyme (Human immunodeficiency virus type 1 group M subtype B, UniProt P03366, E737K); test: biochemical; details: for Average Fold Changes ± Standard Deviation, E138K: Table 4
T2 construct: Antiviral in vitro activity against site-directed mutant HIV-1 RT enzymes
Excerpt: as §1
(§2) The studies are summarized in the text that follows.

[3] = biological target: T3, HIV-1 RT L1001 (L100I) mutant enzyme (Human immunodeficiency virus type 1 group M subtype B, UniProt P03366, L699I); test: biochemical; details: for Average Fold Changes ± Standard Deviation, L1001: Table 4
T3 construct: Antiviral in vitro activity against site-directed mutant HIV-1 RT enzymes
Excerpt: as §1, §2

[4] = biological target: T4, HIV-1 RT L1001/K103N (L100I/K103N) mutant enzyme (Human immunodeficiency virus type 1 group M subtype B, UniProt P03366, K702N/L699I); test: biochemical; details: for Average Fold Changes ± Standard Deviation, L1001/K103N: Table 4
T4 construct: Antiviral in vitro activity against site-directed mutant HIV-1 RT enzymes
Excerpt: as §1, §2

[5] = biological target: T5, HIV-1 RT M184V mutant enzyme (Human immunodeficiency virus type 1 group M subtype B, UniProt P03366, M783V); test: biochemical; details: for Average Fold Changes ± Standard Deviation, M184V: Table 4
T5 construct: Antiviral in vitro activity against site-directed mutant HIV-1 RT enzymes
Excerpt: as §1, §2

[6] = biological target: T6, HIV-1 RT V106M mutant enzyme (Human immunodeficiency virus type 1 group M subtype B, UniProt P03366, V705M); test: biochemical; details: for Average Fold Changes ± Standard Deviation, V106M: Table 4
T6 construct: Antiviral in vitro activity against site-directed mutant HIV-1 RT enzymes
Excerpt: as §1, §2

[7] = biological target: T7, HIV-1 RT V1081 (V108I) mutant enzyme (Human immunodeficiency virus type 1 group M subtype B, UniProt P03366, V707I); test: biochemical; details: for Average Fold Changes ± Standard Deviation, V1081: Table 4
T7 construct: Antiviral in vitro activity against site-directed mutant HIV-1 RT enzymes
Excerpt: as §1, §2

[8] = biological target: T8, HIV-1 RT Y188L mutant enzyme (Human immunodeficiency virus type 1 group M subtype B, UniProt P03366, Y787L); test: biochemical; details: for Average Fold Changes ± Standard Deviation, Y188L: Table 4
T8 construct: Antiviral in vitro activity against site-directed mutant HIV-1 RT enzymes
Excerpt: as §1, §2

[9] = Compound depletion in hepatocytes, dog; format: in vitro ADME; details: up to 2 hours, read-out: t½, Compound Depletion in Hepatocytes, Dog
Protocol: (§3) Fresh hepatocytes were plated onto collagen-coated plates and exposed to test compounds at 1 μM for up to 2 hours. Tissue culture medium was assayed for compound depletion by LC/MS detection. Values in Table 23 represent independent experiments from 5 to 7 donors.

[10] = Compound depletion in hepatocytes, human; format: in vitro ADME; details: up to 2 hours; for t½, Compound Depletion in Hepatocytes, Human: 1 μM; for half-life at 1 μM: human, read-out: t½, Compound Depletion in Hepatocytes, Human
Protocol: as §3

[11] = In vitro half-life in liver microsomes, dog; format: in vitro ADME; details: up to one hour, longer half-lives are extrapolated, n=1
Protocol: In vitro metabolism was assessed using liver microsomes for all species. Compounds were incubated at 1 μM with liver microsomes for up to one hour. Reported half-lives greater than the total incubation time are extrapolated values. Extracts were assayed for disappearance of parent compound by LC-MS/MS detection.
Data represents one independent experiment conducted.

cynomolgus monkeys = test: 14-day oral toxicity, monkeys; format: in vivo, cynomolgus monkey; details: for effects on food consumption or body weight: once daily oral gavage 14 days, up to 500 (I) or 450 (III) mg/kg/day
Protocol: Sprague-Dawley rats and cynomolgus monkeys were dosed once daily for 14 days via oral gavage with compound I or compound III or dose vehicle (68% Capmul PG-8, 20% PEG 400, 2% Tween 20, and 10% Labrasol) according to GLP. There were 10 male and 10 female rats, and there were 3 male and 3 female monkeys. Rats and monkeys were dosed with 0, 50, 150 or 500 mg/kg/day compound I or with 0, 50, 150, 450 mg/kg/day compound III.
Toxicity was assessed using clinical observations, body weights, food consumption, and clinical pathology (hematology, coagulation, and serum chemistry).
A comprehensive necropsy and gross pathological examination was performed on all animals and selected organs and tissues were collected for histological evaluation.
Determinations of hematocrit, hemoglobin concentration, erythrocyte count, total leukocyte count, and platelet count were conducted on all samples. Leukocyte differential and morphologic assessments were performed.
Clinical biochemistry determinations included activities of alanine aminotransferase (ALT), aspartate aminotransferase (AST), gamma-glutamyltranspeptidase (GGT), and alkaline phosphatase (ALP) and concentrations of blood urea nitrogen (BUN), creatinine, total protein, albumin, globulin, glucose, cholesterol, triglycerides, total bilirubin, and electrolyte levels (Na, K, P, Cl, Ca).
Urine samples (monkeys only) were evaluated macroscopically and microscopically and tested for pH, bilirubin, glucose, protein, ketones, blood, urobilinogen, nitrites, leukocytes, and specific gravity.

CYP2C19 = CYP2C19 (Homo sapiens, UniProt P33261); test: Human liver microsomal CYP450 inhibition, CYP2C19; details: for IC50, CYP2C19: human liver microsomes
Protocol: In addition, the type of inhibition was also evaluated.
Enzyme kinetic studies of cytochrome P450 isozyme inhibition were conducted using human liver microsomes.

CYP2C9 = CYP2C9 (Homo sapiens, UniProt P11712); test: Recombinant CYP450 inhibition, Luciferin-H, CYP2C9; format: in vitro ADME; set-up: from tissue; host or cells: pooled human liver microsomes; details: highest concentration tested 10 μM
Protocol: CYP2C9 inhibition was performed by incubating a luminogenic CYP450 substrate Luciferin-H with CYP2C9 and an NADPH regeneration system. Luminescence measured using a Fusion plate reader.

[12] = Table 1, in presence of detergent
[13] = fresh hepatocytes plated on collagen-coated plates

Chain of CYP2C19 (P33261 whole entry): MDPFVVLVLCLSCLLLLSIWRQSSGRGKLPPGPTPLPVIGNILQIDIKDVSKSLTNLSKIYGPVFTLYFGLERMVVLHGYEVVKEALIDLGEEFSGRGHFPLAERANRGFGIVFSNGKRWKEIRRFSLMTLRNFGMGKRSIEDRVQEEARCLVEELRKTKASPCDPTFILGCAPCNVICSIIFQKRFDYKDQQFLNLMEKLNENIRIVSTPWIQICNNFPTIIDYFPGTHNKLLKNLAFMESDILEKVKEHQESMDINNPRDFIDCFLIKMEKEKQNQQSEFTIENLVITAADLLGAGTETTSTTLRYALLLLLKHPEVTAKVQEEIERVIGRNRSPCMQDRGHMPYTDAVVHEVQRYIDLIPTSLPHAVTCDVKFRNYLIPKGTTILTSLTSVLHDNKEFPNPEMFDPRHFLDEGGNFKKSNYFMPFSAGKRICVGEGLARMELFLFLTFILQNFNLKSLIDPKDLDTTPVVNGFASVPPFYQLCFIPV
Chain of CYP2C9 (P11712 whole entry, the tested form may be a part): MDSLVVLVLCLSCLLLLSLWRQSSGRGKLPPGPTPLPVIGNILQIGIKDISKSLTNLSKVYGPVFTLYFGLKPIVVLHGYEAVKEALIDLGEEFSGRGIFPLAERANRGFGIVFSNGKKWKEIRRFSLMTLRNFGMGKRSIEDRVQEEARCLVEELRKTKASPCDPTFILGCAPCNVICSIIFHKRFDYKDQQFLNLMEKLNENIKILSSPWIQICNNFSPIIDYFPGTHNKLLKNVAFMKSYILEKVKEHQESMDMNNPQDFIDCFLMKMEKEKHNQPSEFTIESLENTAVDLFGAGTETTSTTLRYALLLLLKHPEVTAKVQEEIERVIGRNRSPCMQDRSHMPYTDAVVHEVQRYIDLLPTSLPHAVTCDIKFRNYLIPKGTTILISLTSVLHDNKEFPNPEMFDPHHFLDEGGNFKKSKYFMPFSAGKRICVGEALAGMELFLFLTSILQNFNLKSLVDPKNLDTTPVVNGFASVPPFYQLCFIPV

SMILES	IC50 [1, 12] [nM]	IC50 ([1]; Table 3, N=10) [nM]	Fold Change, W.T. [1] [fold]	Average Fold Changes ± Standard Deviation, W.T. [1] [fold]	IC50 [2] [nM]	Average Fold Changes ± Standard Deviation, E138K [2] [fold]	IC50 [3] [nM]	Average Fold Changes ± Standard Deviation, L1001 [3] [fold]	IC50 [4] [nM]	Average Fold Changes ± Standard Deviation, L1001/K103N [4] [fold]	IC50 [5] [nM]	Average Fold Changes ± Standard Deviation, M184V [5] [fold]	IC50 [6] [nM]	Average Fold Changes ± Standard Deviation, V106M [6] [fold]	IC50 [7] [nM]	Average Fold Changes ± Standard Deviation, V1081 [7] [fold]	IC50 [8] [nM]	Average Fold Changes ± Standard Deviation, Y188L [8] [fold]	t½, Compound Depletion in Hepatocytes, Human [10]	effects on food consumption or body weight (cynomolgus monkeys)	also measured
CO[P@](=O)(c1cc(C)cc(/C=C/C#N)c1)c1c(C(N)=O)[nH]c2ccc(Cl)cc12 [Compound III, (2-Carbamoyl-5-chloro-1H-indol-3-yl)-[3-((E)-2-cyano-vinyl)-5-methyl-phenyl]-(R)-phosphinic acid methyl ester]	343 ± 83	210 ± 20	1	1	2990 ± 180	13.7 ± 1.9	130 ± 60	0.6 ± 0.6	400 ± 260	1.8 ± 0.8	170 ± 80	0.8 ± 0.3	200 ± 60	1.0 ± 0.3	830 ± 350	3.8 ± 3.8	1150 ± 360	7.0 ± 5.9	limited in vitro metabolism	No effects	half-life at 1 μM [9, 13]: 21 ± 10 min; half-life at 1 μM [10, 13]: 125 ± 55 min; half-life at 1 μM ([11]; liver microsomes): 13.2 min; organ weights (cynomolgus monkeys; mid and high doses, livers microscopically unremarkable): increased liver weights; IC50 (CYP2C19): 10200 nM; IC50, CYP2C19 (CYP2C19): not observed; IC50 (CYP2C9): 6850 ± 480 nM
CO[P@](=O)(c1cc(C)cc(/C=C/C#N)c1)c1c(C(N)=O)[nH]c2ccc(Cl)c(F)c12 [Compound I, (2-Carbamoyl-5-chloro-4-fluoro-1H-indol-3-yl)-[3-((E)-2-cyano-vinyl)-5-methyl-phenyl]-(R)-phosphinic acid methyl ester]	366 ± 251	230 ± 50	1	1	4670 ± 910	15.5 ± 6.8	160 ± 30	0.5 ± 0.2	430 ± 330	2.4 ± 1.2	290 ± 80	1.7 ± 0.5	230 ± 60	1.2 ± 0.5	1200 ± 710	4.0 ± 5.3	1250 ± 380	6.0 ± 1.7	limited in vitro metabolism	No effects	half-life at 1 μM ([9]; hepatocytes): 28 ± 14 min; half-life at 1 μM ([10]; hepatocytes): 215 ± 48 min; half-life at 1 μM ([11]; microsomes): 19.3 min; IC50 (CYP2C19): 10200 nM; IC50, CYP2C19 (CYP2C19): not observed; IC50 (CYP2C9): 8400 ± 670 nM
